Data published in patent publication US20230150920A1, “SALTS AND SOLID FORMS OF 4-BROMO-2,5-DIMETHOXYPHENETHYLAMINE” (priority 2021, published 2023).
Entries after “also recorded” stand apart in the source; their conditions may differ.

How the values were obtained:
TNF-α = assay: LPS-induced TNF-α release ex vivo in whole blood of dosed rats; set-up: species or system rat; settings: for TNF alpha levels, LPS low dose: LPS 1 μg/mL
Excerpt: The bacterial endotoxin lipopolysaccharide (LPS) induces a strong inflammatory response from normal animal immune systems. This response is triggered when LPS is recognized by the innate immune system via the Toll Like Receptor (TLR4) particularly those located on monocytes and macrophages although they are also located on a wide variety of other cell types. Stimulation of the TLR4 receptor leads to recruitment and activation of IL-1R associated kinase 1 (IRAK-1) initiating a series of signalling events in immunoregulatory pathways such as activation of NF kappa B, p38 MAP Kinase, ERK and JNK and AP-1. These changes promote gene transcription and thereby potentiate secretion of pro inflammatory factors such as TNF alpha and other cytokines (Fang et al., 2004).
Determination of the effects of novel agents against LPS-induced TNF alpha release ex vivo provides an assessment of whether the plasma level of compound achieved after administration to whole animal is capable of affecting the inflammatory response.
Dexamethasone disodium phosphate salt was formulated in water to a concentration of 0.6 mg free base/mL to give a dose of 3 mg free base/kg when orally administered in a 5 mL/kg dosing volume. 2C-B hydrochloride was formulated in Vehicle 1 (saline) at concentrations of […]. This provided doses of 0.1 and 1 mg/kg respectively when injected ip in 5 mL/kg dosing volumes. Ex vivo formulation
LPS were dissolved in saline to concentrations of 0.2 and 0.6 mg/mL. This will then be diluted 10 fold in saline to give concentrations of 0.02 and 0.06 mg/mL that will provide concentrations of 1 and 3 μg/mL when 15 uL is added to 285 of whole blood (20 fold dilution).
Twenty four male SD rats (approximately 200 g), were group housed. Animals were maintained under a 12 h light/dark cycle, where temperature and humidity are controlled. Animals were allowed free access to food and water.
Rats were allocated to treatment groups of 6 and habituated to the test room on the day prior to the study. On the test day, rats were dosed orally with either water or dexamethasone 3 mg/kg in 5 mL/kg dosing volumes. Thirty minutes later the animals were dosed intraperitoneally with either saline or 2C-B in 5 mL/kg dosing volumes. After a further 90 minutes terminal blood samples were collected by cardiac puncture under CO2. • Three aliquots, each of 285 μL from each animal's blood sample were pipetted into separate Eppendorf tubes. • Tubes were left for 10 min • Assay tubes will then be mixed gently before adding 15 μL of saline or LPS to give final concentrations of 1 and 3 μg/ml. • After a further gentle mixing, assay tubes were placed in an incubator at 37° C. for 24 h. • At the end of this time, the whole blood aliquots were spun down to plasma. The plasma were then removed and placed in duplicate 96 well plates on dry ice. Plates were stored at −20° C. until analyzed for TNF-α after 10-fold dilution.
The TNF-alpha content of the collected rat plasmas samples were measured using a Rat TNF-alpha Quantikine ELISA Kit (cat no RTA00).
A 1-way ANOVA was conducted across the vehicle and 3 treatment groups (0.1 mg/kg 2C-B IP, 1 mg/kg 2C-B IP, and 3 mg/kg dexamethasone PO) independently for 3 stimulation conditions (no stimulation [saline], 1 μg/mL LPS, and 3 μg/mL LPS). […] Each group was compared to the vehicle group and a p-value for treatment determined by Fishers Least Significant Difference (LSD) test, without statistical penalty for multiple comparisons. […]

Male Sprague-Dawley rats = assay: Rat elevated zero-maze model of anxiety; assay type: in vivo
Excerpt: The rat zero-maze model is a refined alternative to the plus-maze, the most widely used animal model of anxiety, and consists of an elevated annular platform, divided equally into four quadrants. Two opposite quadrants are enclosed by Perspex walls on both the inner and the outer edges of the platform, while the remaining two opposite quadrants are open being enclosed only by a Perspex “lip”. Animals will show a preference for the closed areas, and avoidance of the open sections is assumed to stem from a rodent's natural aversion to open, exposed spaces. A reduction in the amount of activity on the open areas is considered to reflect an increase in anxiety (shepherd 1994). The ethologically-based behavior rearing was also assessed as an index of anxiety with a decrease in rearing indicative of an […] effect [(a) File 1985, Boissier 1976; (b) File, S. E. (1985). What can be learned from the effects of benzodiazepines on exploratory behavior? Neuroscience & Biobehavioral Reviews, 9(1), 45-54. doi:10.1016/0149-7634(85)90031-4; (c) Boissier, J. R., P. Simon and P. Soubrie. New approaches to the study of anxiety and anxiolytic drugs in animals. […]
Subjects were weighed and tail marked before being injected. After a specified pre-treatment time, subjects were placed in a closed quadrant and a 5-min test period were recorded on videotape for subsequent analysis. […] Animals are scored as being in the open area when all four paws were in an open quadrant and in the closed area only when all four paws have passed over the open-closed divide. […]
30 male Sprague-Dawley rats in treatment groups of 5, was intraperitoneally dosed with either Vehicle 1 (saline) or 2C-B at 1 of 4 dose levels (0.1, 1, 2 & 5 mg/kg) or chlordiazepoxide (6 mg/kg) in 5 mL/kg injection volumes. Thirty min later at T=0, rats were individually placed in a closed arm of the zero-maze and behavior was assessed by a “blind” observer using remote video monitoring over the subsequent 5 min. […]
Data was analysed with Statistica software (Statsoft USA version 10.0). […]

[1] = Water activity slurry experiments, 2C-B HCl Form A vs Form C; assay type: physicochemical; settings: slurry of Form A at ambient temperature
[2] = Dynamic vapor sorption/desorption (DVS), hygroscopicity; assay type: physicochemical
Protocol: The active pharmaceutical ingredient (API), 4-bromo-2,5-dimethoxyphenethylamine hydrochloride, is characterized to evaluate its physical properties. The evaluation is performed by X-ray powder diffraction (XRPD), polarized light microscopy (PLM), differential scanning calorimetry (DSC), thermogravimetry (TG), dynamic vapor sorption/desorption (DVS), and/or solubility testing in organic solvents, water, and mixed solvent systems. XRPD data are used to assess crystallinity. PLM data are used to evaluate crystallinity and particle size/morphology. DSC data are used to evaluate melting point, thermal stability, and crystalline form conversion. TG data are used to evaluate if the API is a solvate or hydrate, and to evaluate thermal stability. DVS data are used to evaluate hygroscopicity of the API and if hydrates can be formed at high relative humidity.
The form characterized in FIGS. 1 and 2 is designated as Form A herein. […] A sharp endotherm at 238° C. in the DSC thermogram is attributed to melting.

[3] = Dynamic vapor sorption (DVS) with XRPD of the post-DVS sample; assay type: physicochemical
Protocol: Dynamic Vapor Sorption (DVS) analysis was carried out using a TA Instruments Q5000 Dynamic Vapor Sorption analyzer. The instrument was calibrated with standard weights and a sodium bromide standard for humidity. Approximately 10-25 mg of sample was loaded into a metal-coated quartz pan for analysis. The sample was analyzed at 25° C. with a maximum equilibration time of one hour in 10% relative humidity (RH) steps from 5 to 95% RH (adsorption cycle) and from 95 to 5% RH (desorption cycle). The movement from one step to the next occurred either after satisfying the equilibrium criterion of 0.01% weight change or, if the equilibrium criterion was not met, after one hour. The percent weight change values were calculated using Microsoft Excel.
(§1) The DVS analysis was carried out using a TA Instruments Q5000 Dynamic Vapor Sorption analyzer. 13.5 mg of sample was loaded into a metal-coated quartz pan for analysis. After equilibration to 5% relative humidity (RH), the sample was analyzed at 25° C. in 10% RH steps from 5 to 95% RH (adsorption cycle) and from 95 to 5% RH (desorption cycle). The movement from one step to the next occurred either after satisfying the equilibrium criterion of 0.01% weight change in 5 minutes or, if the equilibrium criterion was not met, after 90 minutes. The percent weight change values are calculated using Microsoft Excel®.
as §1, with “DVS analyses were” for “DVS analysis was”, “analyzer. Approximately 7-11” for “analyzer. 13.5”, “equilibration at” for “equilibration to”, “values were” for “values are”
as §1, with “analyzer. Approximately 2” for “analyzer. 13.5”, “equilibration at” for “equilibration to”, “values were” for “values are”

Structure (SMILES): COc1cc(CCN)c(OC)cc1Br [2C-B, 4-bromo-2,5-dimethoxyphenethylamine]
- TNF alpha levels, LPS low dose (TNF-α; 0.1 mg/kg ip): no difference vs placebo
- TNF alpha levels, LPS low dose (TNF-α; 1 mg/kg ip): trended towards significance
- TNF alpha levels, high level of LPS (TNF-α; 1 mg/kg ip, LPS 3 μg/ml, 1-way ANOVA): significant decrease in TNF alpha levels
- TNF alpha levels in the absence of LPS (TNF-α; no stimulation (saline), 2C-B 0.1 and 1 mg/kg ip, dexamethasone 3 mg/kg po): no effect
- amount of TNF alpha released in response to LPS (TNF-α; pre-treatment in vivo ip, LPS 1 and 3 μg/mL): reduced the amount of TNF alpha released in response to LPS
- frequency of rearing (Male Sprague-Dawley rats; ip 1 mg/kg, 2 mg/kg, and 5 mg/kg doses): decreased the frequency of rearing as effectively as the benzodiazepine chlordiazepoxide
- frequency of rearing (Male Sprague-Dawley rats; ip 5 mg/kg): greatest numerical effect
- frequency of rearing (Male Sprague-Dawley rats; ip 0.1, 1, 2 & 5 mg/kg, 30 min before 5-min test): significantly reduced the number of rears in a dose dependent manner; also recorded: as effective as the chlordiazepoxide control

Structure (SMILES): COc1cc(CCN)c(OC)cc1Br.Cl [Form A, 4-bromo-2,5-dimethoxyphenethylamine hydrochloride]
- water activities at which the form was obtained or remained unchanged ([1]; hydrochloride): ≤ 0.5
- hygroscopicity based on DVS data [2]: slightly hygroscopic
- Form change after moisture sorption/desorption (DVS) ([2]; loses all the gained moisture): without form change
- hygroscopicity based on DVS data ([3]; 25° C., 5 to 95% RH): slightly hygroscopic
- behaviour on desorption / form change by XRPD of post-DVS sample ([3]; desorption 95 to 5% RH): loses all the gained moisture without form change

Structure (SMILES): COc1cc(CCN)c(OC)cc1Br.Cl [Form C, 4-bromo-2,5-dimethoxyphenethylamine HCl]
- water activities at which the form was obtained or remained unchanged ([1]; HCl): ≥ 0.6
